According to patent publication US5439816A, “Carboxymethylcellulase isolated from bacillus sp. PKM-5430 (FERM BP-4087)” (Kao Corporation, priority 1991, dated 1995):

Assays:
[1] = tested on: Carboxymethylcellulase 5812; assay: Substrate specificity of Carboxymethylcellulase 5812 (hydrolytic activities, DNS method / p-nitrophenol release); assay type: biochemical, Bacillus sp. PKM-5812
Method: (§1) Activities were determined by the DNS method (J. R. Summer and G. F. Somers, Laboratory Experiments in Biological Chemistry, Academic Press, New York, U.S.A., 1944). Namely, 0.1 ml of a suitably diluted enzyme solution was added to 0.9 ml of a 1.1% (w/v) solution of a CMC (A01MC) substrate in 0.1M glycine-NaOH buffer (pH: 9.0). After a 20-minute reaction at 40° C., 1 ml of 0.05% (w/v) 3,5-dinitrosalicylic acid solution (product of Wako Pure Chemical Industries, Ltd.) was added, and the resulting mixture was immediately placed in a boiling water bath for 5 minutes, followed by cooling in an iced water bath. Then, 4 ml of deionized water was added further, afterwhich, colorimetry was conducted by measuring an absorbance at 535 nm. With respect to enzymatic activity, the amount of enzyme, which liberates reducing sugars corresponding to 1 μmole of glucose for 1 minute, was defined as 1 unit.
(§2) Sodium hydroxide- and phosphoric acid-swollen celluloses were prepared according to the method of Tomita et al. [Y. Tomita, H. Suzuki and K. Nisizawa, J. Biochem., 78, 499(1975)]. The reducing sugar liberated was determined in a similar manner to that of the method (a) except that substrate solutions containing cellulose substrates were used, and the reaction was conducted at 30° C.
(§3) The reducing sugar liberated was determined in a similar manner to that of the method (a) except that substrate solutions containing polysaccharides were used, and the reaction was conducted at 30° C.
(§4) A suitably diluted enzyme solution was added to a solution of 8 mM of a PNPG or PNPC substrate in 0.1M phosphate buffer of pH 7.0 to react them for 20 minutes at 30° C. The p-nitrophenol liberated was determined at 400 nm and the amount formed was calculated.
(§5) The enzyme is also active toward cellobiose, PNPG, PNPC, cellulose powder and phosphoric acid-swollen cellulose.

[2] = tested on: Carboxymethylcellulase 5430; assay: Substrate specificity of Carboxymethylcellulase 5430 (hydrolytic activities, DNS method / p-nitrophenol release); assay type: biochemical, Bacillus sp. PKM-5430
Method: as §1, §2, §3, §4, §5

[3] = substrate 8 mM, 0.1M phosphate buffer pH 7.0, 30° C., activity toward CMC taken as 100%

Q: Which results are given for `O=[N+]([O-])c1ccc(O[C@@H]2O[C@H](CO)[C@@H](O)[C@H](O)[C@H]2O)cc1` [PNPG, p-nitrophenyl-β-D-glucopyranoside]?
A: activity of the enzyme toward substrate [1]: active; Relative activity (%) [1, 3]: 0.2%; activity of the enzyme toward substrate [2]: active; Relative activity (%) [2, 3]: 0.8%
